Assay results published in patent US20210309619A1, “ISOXAZOLIN-5-ONE DERIVATIVES AND HERBICIDES CONTAINING THE SAME AS ACTIVE INGREDIENTS” (HOKKO CHEMICAL INDUSTRY CO., LTD., priority 2018, published 2021).

Tests used:
Type in all cases: in vivo
Scirpus juncoides [1] = assay: Herbicidal effect test by treatment during growing period in paddy rice cultivation (Test Example 2); conditions: 120 g/10 a, treated seven days after seeding, 14 days after treatment
Source text: (§1) Herbicidal Rate (%)={1−(Average Dry Weight (g) of Plant of Treated Area)/(Average Dry Weight (g) of Plant of Untreated Area)}×100 [Math. 1]
(§2) Wagner pots with an area of 1/10000 ares were filled with a paddy soil, and a compound fertilizer (N:P:K=17:17:17) was mixed after addition of water, followed by soil puddling. Then, Echinochloa crus-galli, broad leaf weeds (Lindernia pyxidaria and Monochoria vaginalis) and Scirpus juncoides, 30 seeds each, were sown in a depth of 0 to 1 cm. Water was poured immediately after seeding, and the water depth was kept at about 3 cm. A subsequent management was conducted in a glass greenhouse. Emulsions prepared using the compounds in Table 4 below according to Formulation Example 5 were diluted with water seven days after seeding, and a certain amount of the water-diluted agent solutions were dropped. A converted amount of the applied active ingredient corresponded to 120 g per 10 ares. The test was conducted in a double system per one agent solution concentration area, and the herbicidal rates (%) were determined by the equation (Math. 1) 14 days after the treatment with the agents. In this regard, the compound numbers in Table 4 are the same as those in Table 1 and Table 2 above.

Echinochloa crus-galli [2] = assay: as above; conditions: 120 g/10 a, treated seven days after seeding, 14 days after treatment
Source text: as §1, §2

Lindernia pyxidaria [3] = assay: as above; conditions: 120 g/10 a, treated seven days after seeding, 14 days after treatment
Source text: as §1, §2

Monochoria vaginalis [4] = assay: as above; conditions: 120 g/10 a, treated seven days after seeding, 14 days after treatment
Source text: as §1, §2

Scirpus juncoides [5] = assay: Herbicidal effect test by treatment of rice paddy soil (Test Example 1); conditions: 120 g/10 a, treated immediately after seeding, 14 days after treatment
Procedure: (§3) Wagner pots with an area of 1/10000 ares were filled with a paddy soil, and a compound fertilizer (N:P:K=17:17:17) was mixed after water was added, followed by soil puddling. Then, Echinochloa crus-galli, broad leaf weeds (Lindernia pyxidaria and Monochoria vaginalis) and Scirpus juncoides, 30 seeds each, were sown in a depth of 0 to 1 cm. Water was poured immediately after seeding, and the water depth was kept at about 3 cm. A subsequent management was conducted in a glass greenhouse. Immediately after that, emulsions prepared using the compounds in Table 3 below according to Formulation Example 5 were diluted with water, and a certain amount of the water-diluted agent solutions were dropped. A converted amount of the applied active ingredient corresponded to 120 g per 10 ares.
(§4) This test was conducted in a double system per one agent solution concentration area, and the herbicidal rates (%) were determined by the following equation (Math. 1) 14 days after the treatment with the agents.
as §1

Echinochloa crus-galli [6] = assay: as above; conditions: 120 g/10 a, treated immediately after seeding, 14 days after treatment
Procedure: as §3, §4, §1

Lindernia pyxidaria [7] = assay: as above; conditions: 120 g/10 a, treated immediately after seeding, 14 days after treatment
Procedure: as §3, §4, §1

Monochoria vaginalis [8] = assay: as above; conditions: 120 g/10 a, treated immediately after seeding, 14 days after treatment
Procedure: as §3, §4, §1

Amaranthus viridis [9] = assay: Herbicidal effect test by treatment of dry field farming soil (Test Example 3); conditions: 120 g/10 a, sprayed one day after seeding, 14 days after treatment
Source text: (§5) Herbicidal Rate (%)={1−(Average Dry Weight (g) of Plant of Treated Area)/(Average Dry Weight (g) of Plant of Untreated Area)}×100 [Math. 1] Pots with a size of 36 cm^2 were filled with a dry field farming soil (alluvium). The soil of the top layer of 1 cm and seeds of weeds, namely southern crabgrass, Echinochloa crus-galli, Chenopodium album and Amaranthus viridis, 20 seeds each, were evenly mixed, and the top layer was gently pressed. Emulsions prepared using the compounds in Table 5 below according to Formulation Example 5 were diluted with water one day after seeding, and the water-diluted agent solutions were sprayed to the soil surfaces at a ratio of 100 liters per 10 ares. A converted amount of the applied active ingredient corresponded to 120 g per 10 ares. The herbicidal effects were evaluated by the same standard as that in Test Example 1, 14 days after the treatment with the agents. In this regard, the compound numbers in Table 5 are the same as those in Table 1 and Table 2 above.

Chenopodium album [10] = assay: as above; conditions: 120 g/10 a, sprayed one day after seeding, 14 days after treatment
Source text: as §5

Echinochloa crus-galli [11] = assay: as above; conditions: 120 g/10 a, sprayed one day after seeding, 14 days after treatment
Source text: as §5

southern crabgrass [12] = assay: as above; conditions: 120 g/10 a, sprayed one day after seeding, 14 days after treatment
Source text: as §5

Amaranthus viridis [13] = assay: Herbicidal effect test by treatment of stem and leaf in dry field farming (Test Example 4); conditions: 120 g/10 a, stem and leaf treatment seven days after seeding, 14 days after treatment
Source text: as §5, with “Table 6” for “Table 5”, “water seven days” for “water one day”

Chenopodium album [14] = assay: as above; conditions: 120 g/10 a, stem and leaf treatment seven days after seeding, 14 days after treatment
Source text: as §5, with “Table 6” for “Table 5”, “water seven days” for “water one day”

Echinochloa crus-galli [15] = assay: as above; conditions: 120 g/10 a, stem and leaf treatment seven days after seeding, 14 days after treatment
Source text: as §5, with “Table 6” for “Table 5”, “water seven days” for “water one day”

southern crabgrass [16] = assay: as above; conditions: 120 g/10 a, stem and leaf treatment seven days after seeding, 14 days after treatment
Source text: as §5, with “Table 6” for “Table 5”, “water seven days” for “water one day”

Row | Compound | Herbicidal rate, Scirpus juncoides (Scirpus juncoides [1]) [%] | Herbicidal rate, Echinochloa crus-galli (Echinochloa crus-galli [2]) [%] | Herbicidal rate, Lindernia pyxidaria (Lindernia pyxidaria [3]) [%] | Herbicidal rate, Monochoria vaginalis (Monochoria vaginalis [4]) [%] | Herbicidal rate, Scirpus juncoides (Scirpus juncoides [5]) [%] | Herbicidal rate, Echinochloa crus-galli (Echinochloa crus-galli [6]) [%] | Herbicidal rate, Lindernia pyxidaria (Lindernia pyxidaria [7]) [%] | Herbicidal rate, Monochoria vaginalis (Monochoria vaginalis [8]) [%] | Herbicidal rate, Amaranthus viridis (Amaranthus viridis [9]) [%] | Herbicidal rate, Chenopodium album (Chenopodium album [10]) [%] | Herbicidal rate, Echinochloa crus-galli (Echinochloa crus-galli [11]) [%] | Herbicidal rate, southern crabgrass (southern crabgrass [12]) [%] | Herbicidal rate, Amaranthus viridis (Amaranthus viridis [13]) [%] | Herbicidal rate, Chenopodium album (Chenopodium album [14]) [%] | Herbicidal rate, Echinochloa crus-galli (Echinochloa crus-galli [15]) [%] | Herbicidal rate, southern crabgrass (southern crabgrass [16]) [%]
1 | COC1CCCC1n1oc(=O)c(Cc2ccccc2N(C(=O)CC(C)C)S(=O)(=O)C(F)(F)F)c1C (stereo not drawn) [Compound 119] | 90 | 100 | 80 | 90 | 100 | 100 | 100 | 100 | 60 | 60 | 90 | 90 | 90 | 90 | 90 | 80
2 | COC1CCCC1n1oc(=O)c(Cc2ccccc2N(C(=O)c2ccc(Cl)cc2)S(=O)(=O)C(F)(F)F)c1C (stereo not drawn) [Compound 147] | 90 | 100 | 80 | 90 | 100 | 100 | 100 | 100 | 60 | 60 | 90 | 90 | 90 | 90 | 90 | 80
3 | CCOC(=O)N(c1ccccc1Cc1c(C)n(C2CCCCC2OC)oc1=O)S(=O)(=O)C(F)(F)F (stereo not drawn) [Compound 190, ethyl N-[2-[[(2-methoxycyclohexyl)-3-methyl-5-oxoisoxazol-4-yl]methyl]phenyl]-N-(trifluoromethylsulfonyl)carbamate] | 90 | 100 | 80 | 90 | 100 | 100 | 100 | 100 | 90 | 60 | 90 | 90 | 90 | 90 | 90 | 90
4 | CCCOC(=O)N(c1ccccc1Cc1c(C)n(C2CCCC2OC)oc1=O)S(=O)(=O)C(F)(F)F (stereo not drawn) [Compound 200] | 90 | 100 | 80 | 90 | 100 | 100 | 100 | 100 | 60 | 60 | 90 | 90 | 90 | 90 | 90 | 80
5 | COC1CCCC1n1oc(=O)c(Cc2ccccc2N(C(=O)OC(C)C)S(=O)(=O)C(F)(F)F)c1C (stereo not drawn) [Compound 212] | 90 | 100 | 80 | 90 | 100 | 100 | 100 | 100 | 60 | 60 | 90 | 90 | 90 | 90 | 90 | 80
6 | COC1CCCC1n1oc(=O)c(Cc2ccccc2N(C(=O)OCC(C)C)S(=O)(=O)C(F)(F)F)c1C (stereo not drawn) [Compound 248] | 90 | 100 | 80 | 90 | 100 | 100 | 100 | 100 | 60 | 60 | 90 | 90 | 90 | 90 | 90 | 80
